Values of other authors as cited in patent US6071508A, “Preparation of formulations for electrotransport drug delivery” (Alza Corporation, priority 1997, dated 2000).
Structures can show the parent of a compound that is named as a salt.

Settings: known value

c1ccc2c(c1)CC[C@H](CNCCCNC1=NCCCN1)O2 [drug salt of Example 1, (-)-(R)-N-[(3,4-dihydro-2H-1-benzopyran-2-yl)methyl]-N'-(1,4,5,6-tetrahydropyrimidinyl)-1,3-propanediamine dihydrochloride]
pKa, pyrimidinamine functionality: > 11.0
pKa, secondary amine group: 8.3
